{"source": "patent EP1304333A2", "about": "“6,7-Oxygenated steroids and uses related thereto” (Inflazyme Pharmaceuticals, Ltd., priority 1996, dated 1998)", "key": {"[1]": {"tested_on": "Ascaris suum sensitized sheep", "assay": "Allergic sheep model of asthma (specific lung resistance, hyperresponsiveness to carbachol)", "type": "in vivo", "settings": "400 µg/kg 30 min prior to and 4 hrs after challenge, inhalation; -0.5 hr", "protocol": "The model is conscious, where the animals are breathing spontaneously, allowing measurement of airways bronchoconstriction and acute airway hyperresponsiveness.\nSheep which were naturally sensitized to Ascaris suum (30-40 Kg) were intubated with an endotracheal tube and a balloon catheter, positioned in the lower esophagus. Pleural pressure was estimated with the esophageal catheter, while later pressure was measured with a side-hole catheter advanced through and positioned distal to the tip of the endotracheal tube. Transpulmonary pressure differences between the trachea and pleural pressures were measured with a differential pressure transducer catheter system.\nThe proximal end of the endotracheal tube was connected to a Fleisch pneumotachograph in order to measure flow changes. Pulmonary resistance (RL) was calculated from pressure measurements of transpulmonary pressure, respiratory volume (from digital integration of the flow signal) and flow by the mid-flow technique. SRL was calculated as RL·Vtg (Vtg=thoracic gas volume).\nAerosols generated using a disposable nebulizer, were directed into a T-piece connected to a Harvard respirator and the tracheal tube in series. […]\nSpecific lung resistance (SRL) was measured every 60 min for 8 hours after antigen challenge. Airways hyperresponsiveness to carbachol was measured 24 hours after the initial challenge."}, "[2]": {"tested_on": "sensitized Brown Norway rats", "assay": "Allergen-induced lung inflammation (inflammatory cells in lung lavage fluid)", "type": "in vivo, rat", "settings": "5 mg/kg/day for 4 days, p.o.; OA challenge; lavage 48 hours after challenge", "text": "The ability of a compound to inhibit the allergen-induced accumulation of inflammatory cells such as eosinophils and neutrophils in the lavage fluid obtained from sensitized animals is indicative of anti-asthma activity. In particular, the model system is useful in the evaluation of the effects of compounds in the treatment of the late-phase response of asthma, when lung inflammation and the second phase of bronchoconstriction is apparent.\nMale Brown Norway rats (200-250 g) are sensitized to ovalbumin by an intraperitoneal injection of 1 mg ovalbumin and 100 mg aluminum hydroxide in 1 ml of sterile saline. After 21 days the animals are found to be sensitized to ovalbumin. Animals are treated with drug or vehicle (0.3 ml PEG-200) once daily for 4 days by oral gavage. The animals are challenged by exposure, for a period of 60 minutes, to nebulized solution of 0.5% ovalbumin in saline generated using a Devillbis nebulizer. The final dose of drug is given 24 hours after challenge. Forty eight hours after challenge the animals are euthanized by an overdose of halothane and the lungs are lavaged with 7 x 2 mLs of sterile saline (room temperature). The recovered lavage fluid is placed on ice and centrifuged at 1200 rpm to separate the cells from the supernatant. The cells are exposed briefly to Tris/ammonium chloride, pH 7.3 to remove any red cells, and washed in phosphate buffered saline. Cytospins of each cell sample are prepared and stained for the presence of cells containing peroxidase and for the determination of the numbers of eosinophils and neutrophils. The numbers of inflammatory cells are expressed as a percentage of the total number of cells recovered in the lavage fluid."}, "isolated trachea": {"tested_on": "isolated trachea", "assay": "Allergen (OA)-induced contraction of isolated trachea from sensitized guinea pigs", "parameters": "species or system guinea pig", "settings": "Study 3, 30 µM compound", "protocol": "The effects of a number of the compounds described herein on allergen-induced bronchoconstriction were evaluated for anti-asthma activity. The ability of a compound to inhibit allergen-induced decreases in lung function in sensitized guinea pigs in response to antigen-challenge is indicative of anti-asthma activity. In particular, the model system is useful in the evaluation of the potential effects of a compound in the treatment of the early asthmatic reaction (EAR) when severe bronchoconstriction occurs.\nGuinea pigs were exposed to a nebulized solution of 1% ovalbumin (OA) in saline for 15 min. […] Tracheal rings were prepared and bathed in Krebs-Henseleit solution at 37°C and aerated with 5% CO2 in O2. Tissues were suspended under a resting tension of 2 g and isometric contractions were measured using force-displacement transducers coupled to a polygraph. Tissues were incubated with each compound or 0.1% dimethylsulfoxide (as a control) for 20 min, after which increasing concentrations of OA (0.001 - 100 µg/ml) were added to the tissue. After the final concentration of OA was added and the response was recorded, the tissues were stimulated with 100 µM methacholine which caused maximum contraction of the trachea. The magnitude of the contraction induced by OA in the presence of each compound was expressed as a percentage of the maximum contraction obtained using methacholine (100 µM)."}, "sensitized guinea pigs": {"tested_on": "sensitized guinea pigs", "assay": "Allergen-induced changes in lung resistance and lung compliance in vivo", "parameters": "species or system guinea pig", "settings": "50 µg/kg inhalation", "protocol": "In addition, the effect of compounds of the invention on lung function in vivo was determined in sensitized animals as follows: • Female Cam Hartley guinea pigs (350-400 g) are sensitized to ovalbumin by exposure of the guinea pigs to a nebulized solution of 1% ovalbumin in saline for 15 minutes. After 10-12 days, the animals are found to be acutely sensitized to the allergen (ovalbumin). Animals are treated by oral gavage, under light halothane anesthesia, with 300 µl polyethyleneglycol-200 (PEG) or 5 mg/Kg of test compound in 300 µl of PEG. Animals are treated once daily for 4 days with the final dose administered 2 hours prior to allergen challenge. Alternatively, compounds were delivered by inhalation, using a Hudson nebulizer driven by 6psi oxygen, providing a single dose of 50 µg/Kg 20 min prior to challenge.\nAn animal is anaesthetized using ketamine ([…]; i.p.) and xylazine (10 mg/Kg; i.p.) and 1% halothane during the surgical procedure. A tracheostomy is performed and a water-filled esophageal cannula is inserted prior to positioning the animal in a body plethysmograph. The tracheal cannula is attached to a fixed tracheal cannula in the plethysmograph. Cardiac function is monitored using electrocardiography. The animal is paralyzed using pancuronium bromide (0.8 mg/Kg; i.m.) and ventilated with 3 ml tidal breaths using a Harvard small animal ventilator, at a frequency of 60 breaths per minute. Pulmonary resistance and dynamic lung compliance data are obtained from volume, flow and transpulmonary pressure signals using multipoint analysis.\nPulmonary function is continually monitored throughout the experiment and measurements of lung resistance and lung compliance are made at various time-points (e.g., 0, 1, 2, 3, 4, 5, 10, 20 and 30 min) following antigen challenge. Data is collected on a computer-linked physiological measurement system using DIREC Physiological recording software and analyzed using ANADAT software designed for lung mechanics measurements. This software was obtained from RHT-InfoDat Inc., Montreal, Quebec, Canada.\nOnce baseline resistance and compliance measurements are obtained, the animal is challenged with 6 breaths of saline. After 10 minutes, during which time no alterations in lung function should occur, the animal is challenged with 6 breaths of 2 or 3% ovalbumin in saline (as the antigen stimulus). Saline and antigen are delivered in each breath using a Hudson nebulizer."}}, "data": [{"substance": "3α,6α,7β-trihydroxy-17(20)-pregnene [Compound 330]", "values": [{"measurement": "Specific Lung Resistance (% Baseline)", "setting": "[1]", "value": "0±4", "unit": "% Baseline"}, {"measurement": "Percentage Total Cells Recovered in Lavage Fluid: Cells Stained Positive for Peroxidase", "setting": "[2]", "value": "5.65 ± 2.44", "unit": "%"}, {"measurement": "Percentage Total Cells Recovered in Lavage Fluid: Eosinophils", "setting": "[2]", "value": "1.98 ± 0.78", "unit": "%"}, {"measurement": "Percentage Total Cells Recovered in Lavage Fluid: Neutrophils", "setting": "[2]", "value": "6.16 ± 4.54", "unit": "%"}, {"measurement": "percentage contraction compared to 100µM methacholine (100%)", "setting": "isolated trachea; 0.001 µg/ml OA", "value": 0, "unit": "%"}, {"measurement": "percentage contraction compared to 100µM methacholine (100%)", "setting": "isolated trachea; 0.01 µg/ml OA", "value": 1.90, "unit": "%"}, {"measurement": "percentage contraction compared to 100µM methacholine (100%)", "setting": "isolated trachea; 0.1 µg/ml OA", "value": 9.00, "unit": "%"}, {"measurement": "percentage contraction compared to 100µM methacholine (100%)", "setting": "isolated trachea; 1 µg/ml OA", "value": 17.5, "unit": "%"}, {"measurement": "percentage contraction compared to 100µM methacholine (100%)", "setting": "isolated trachea; 10 µg/ml OA", "value": 26.0, "unit": "%"}, {"measurement": "percentage contraction compared to 100µM methacholine (100%)", "setting": "isolated trachea; 100 µg/ml OA", "value": 30.0, "unit": "%"}, {"measurement": "Lung Compliance", "setting": "sensitized guinea pigs; 1 min after challenge", "value": "0.349±0.059", "unit": "ml/cm H2O"}, {"measurement": "Lung Resistance", "setting": "sensitized guinea pigs; 1 min after challenge", "value": "0.382±0.033", "unit": "cm H2O/ml/sec"}, {"measurement": "Lung Compliance", "setting": "sensitized guinea pigs; 2 min after challenge", "value": "0.213±0.046", "unit": "ml/cm H2O"}, {"measurement": "Lung Resistance", "setting": "sensitized guinea pigs; 2 min after challenge", "value": "0.420±0.044", "unit": "cm H2O/ml/sec"}, {"measurement": "Lung Compliance", "setting": "sensitized guinea pigs; 3 min after challenge", "value": "0.176±0.045", "unit": "ml/cm H2O"}, {"measurement": "Lung Resistance", "setting": "sensitized guinea pigs; 3 min after challenge", "value": "0.420±0.051", "unit": "cm H2O/ml/sec"}, {"measurement": "Lung Compliance", "setting": "sensitized guinea pigs; 4 min after challenge", "value": "0.145±0.046", "unit": "ml/cm H2O"}, {"measurement": "Lung Resistance", "setting": "sensitized guinea pigs; 4 min after challenge", "value": "0.455±0.047", "unit": "cm H2O/ml/sec"}, {"measurement": "Lung Compliance", "setting": "sensitized guinea pigs; 5 min after challenge", "value": "0.146±0.031", "unit": "ml/cm H2O"}, {"measurement": "Lung Resistance", "setting": "sensitized guinea pigs; 5 min after challenge", "value": "0.446±0.124", "unit": "cm H2O/ml/sec"}, {"measurement": "Lung Compliance", "setting": "sensitized guinea pigs; 10 min after challenge", "value": "0.138±0.022", "unit": "ml/cm H2O"}, {"measurement": "Lung Resistance", "setting": "sensitized guinea pigs; 10 min after challenge", "value": "0.436±0.036", "unit": "cm H2O/ml/sec"}, {"measurement": "Lung Compliance", "setting": "sensitized guinea pigs; 20 min after challenge", "value": "0.193±0.054", "unit": "ml/cm H2O"}, {"measurement": "Lung Resistance", "setting": "sensitized guinea pigs; 20 min after challenge", "value": "0.413±0.076", "unit": "cm H2O/ml/sec"}, {"measurement": "Lung Compliance", "setting": "sensitized guinea pigs; 30 min after challenge", "value": "0.181±0.046", "unit": "ml/cm H2O"}, {"measurement": "Lung Resistance", "setting": "sensitized guinea pigs; 30 min after challenge", "value": "0.412±0.072", "unit": "cm H2O/ml/sec"}, {"measurement": "Lung Compliance", "setting": "sensitized guinea pigs; Baseline", "value": "0.463±0.129", "unit": "ml/cm H2O"}, {"measurement": "Lung Resistance", "setting": "sensitized guinea pigs; Baseline", "value": "0.300±0.025", "unit": "cm H2O/ml/sec"}, {"measurement": "Lung Compliance", "setting": "sensitized guinea pigs; OA/10 s", "value": "0.565±0.062", "unit": "ml/cm H2O"}, {"measurement": "Lung Resistance", "setting": "sensitized guinea pigs; OA/10 s", "value": "0.288±0.036", "unit": "cm H2O/ml/sec"}]}]}
